By Ki is commonly meant a measure of affinity in units of concentration, obtained from inhibition or displacement. Read a low Ki as higher affinity.

Results on 7 molecules are retold here after BindingDB's records for doi:10.1016/s1388-1981(99)00164-x (Merck Frosst Centre For Therapeutic Research, 2000).

In experiment [1] the target is T1, Prostaglandin D2 receptor (Homo sapiens, UniProt Q13258).
T1 sequence (Q13258 whole entry): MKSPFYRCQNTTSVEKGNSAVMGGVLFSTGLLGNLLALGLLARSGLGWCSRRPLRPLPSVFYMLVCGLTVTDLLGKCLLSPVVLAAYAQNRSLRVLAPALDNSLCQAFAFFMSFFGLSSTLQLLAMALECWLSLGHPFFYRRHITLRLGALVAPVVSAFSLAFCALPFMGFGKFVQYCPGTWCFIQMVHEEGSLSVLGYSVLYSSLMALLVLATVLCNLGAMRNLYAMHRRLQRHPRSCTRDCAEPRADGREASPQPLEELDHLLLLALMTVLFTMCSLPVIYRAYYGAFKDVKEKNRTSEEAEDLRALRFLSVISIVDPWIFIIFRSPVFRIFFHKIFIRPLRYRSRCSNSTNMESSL

Experiment [2] has as its target Prostacyclin receptor (Homo sapiens, UniProt P43119).
For experiment [3], the target named is Prostaglandin E2 receptor EP2 subtype (Homo sapiens, UniProt P43116).
Experiment [4] deals with Prostaglandin E2 receptor EP4 subtype (Homo sapiens, UniProt P35408).
In experiment [5] the target is T2, Prostaglandin E2 receptor EP1 subtype (Homo sapiens, UniProt P34995).
T2 sequence (P34995 whole entry): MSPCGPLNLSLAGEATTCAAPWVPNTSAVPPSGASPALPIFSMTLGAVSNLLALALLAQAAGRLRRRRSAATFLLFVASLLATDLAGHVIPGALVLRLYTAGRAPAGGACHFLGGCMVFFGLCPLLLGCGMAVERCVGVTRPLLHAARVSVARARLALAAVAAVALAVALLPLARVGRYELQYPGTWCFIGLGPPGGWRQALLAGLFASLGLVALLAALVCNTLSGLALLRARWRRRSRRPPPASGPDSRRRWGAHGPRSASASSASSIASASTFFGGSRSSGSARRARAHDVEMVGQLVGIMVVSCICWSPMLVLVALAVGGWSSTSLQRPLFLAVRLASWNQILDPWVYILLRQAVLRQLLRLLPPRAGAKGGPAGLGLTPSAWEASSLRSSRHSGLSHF

Experiment [6] addresses T3, Prostaglandin E2 receptor EP3 subtype (Homo sapiens, UniProt P43115).
T3 sequence (P43115 whole entry): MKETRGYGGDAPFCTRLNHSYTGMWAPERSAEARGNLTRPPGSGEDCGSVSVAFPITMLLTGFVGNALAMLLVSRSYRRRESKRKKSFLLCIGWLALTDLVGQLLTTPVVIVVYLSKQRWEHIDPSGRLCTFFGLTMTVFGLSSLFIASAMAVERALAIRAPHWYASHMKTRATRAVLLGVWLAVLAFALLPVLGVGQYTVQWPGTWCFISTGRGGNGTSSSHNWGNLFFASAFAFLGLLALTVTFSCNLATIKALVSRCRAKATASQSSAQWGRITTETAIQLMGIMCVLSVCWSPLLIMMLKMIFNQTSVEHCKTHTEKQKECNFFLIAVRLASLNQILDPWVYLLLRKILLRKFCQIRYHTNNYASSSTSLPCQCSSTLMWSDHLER

The target in experiment [7] is Prostaglandin F2-alpha receptor (Human, UniProt P43088).
Experiment [8] concerns the target Solute carrier organic anion transporter family member 2A1 (Homo sapiens, UniProt Q92959).

The structures appear in SMILES notation.

Prostaglandin E2 receptor EP2 subtype, sequence (P43116 whole entry): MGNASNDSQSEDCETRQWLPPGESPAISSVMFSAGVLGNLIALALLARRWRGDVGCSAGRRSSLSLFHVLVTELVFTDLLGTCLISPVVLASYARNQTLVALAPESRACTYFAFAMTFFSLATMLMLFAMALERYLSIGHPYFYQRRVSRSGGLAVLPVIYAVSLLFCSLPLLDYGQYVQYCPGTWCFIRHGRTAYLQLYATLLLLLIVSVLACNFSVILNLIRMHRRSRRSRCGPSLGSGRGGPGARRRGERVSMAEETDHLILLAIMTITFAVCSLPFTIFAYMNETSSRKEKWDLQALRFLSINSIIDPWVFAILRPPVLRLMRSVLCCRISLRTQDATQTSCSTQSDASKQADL
Prostaglandin E2 receptor EP4 subtype, sequence (P35408 whole entry): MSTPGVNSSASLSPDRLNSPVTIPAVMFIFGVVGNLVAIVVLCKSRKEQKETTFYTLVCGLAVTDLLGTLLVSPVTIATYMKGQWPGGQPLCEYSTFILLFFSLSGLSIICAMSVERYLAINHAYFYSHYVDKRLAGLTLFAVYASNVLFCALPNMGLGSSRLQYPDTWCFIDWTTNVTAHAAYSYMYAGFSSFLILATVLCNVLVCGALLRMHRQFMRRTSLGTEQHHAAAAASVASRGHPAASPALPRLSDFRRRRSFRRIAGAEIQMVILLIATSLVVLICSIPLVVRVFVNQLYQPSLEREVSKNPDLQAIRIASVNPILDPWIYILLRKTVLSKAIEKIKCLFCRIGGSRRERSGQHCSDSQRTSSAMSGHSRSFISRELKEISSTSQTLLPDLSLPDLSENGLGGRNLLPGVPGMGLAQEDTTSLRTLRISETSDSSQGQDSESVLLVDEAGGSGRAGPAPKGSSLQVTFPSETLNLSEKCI
Prostaglandin F2-alpha receptor, sequence (P43088 whole entry): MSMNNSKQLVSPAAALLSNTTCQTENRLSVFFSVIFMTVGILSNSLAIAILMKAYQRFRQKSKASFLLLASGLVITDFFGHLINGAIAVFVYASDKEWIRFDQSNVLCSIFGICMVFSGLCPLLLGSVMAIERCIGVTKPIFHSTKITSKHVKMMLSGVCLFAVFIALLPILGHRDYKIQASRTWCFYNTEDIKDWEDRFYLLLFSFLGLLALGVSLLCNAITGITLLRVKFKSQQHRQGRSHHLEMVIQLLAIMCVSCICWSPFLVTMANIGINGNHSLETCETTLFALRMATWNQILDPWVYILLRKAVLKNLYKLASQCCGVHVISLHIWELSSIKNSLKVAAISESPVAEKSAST
Prostacyclin receptor, sequence (P43119 whole entry): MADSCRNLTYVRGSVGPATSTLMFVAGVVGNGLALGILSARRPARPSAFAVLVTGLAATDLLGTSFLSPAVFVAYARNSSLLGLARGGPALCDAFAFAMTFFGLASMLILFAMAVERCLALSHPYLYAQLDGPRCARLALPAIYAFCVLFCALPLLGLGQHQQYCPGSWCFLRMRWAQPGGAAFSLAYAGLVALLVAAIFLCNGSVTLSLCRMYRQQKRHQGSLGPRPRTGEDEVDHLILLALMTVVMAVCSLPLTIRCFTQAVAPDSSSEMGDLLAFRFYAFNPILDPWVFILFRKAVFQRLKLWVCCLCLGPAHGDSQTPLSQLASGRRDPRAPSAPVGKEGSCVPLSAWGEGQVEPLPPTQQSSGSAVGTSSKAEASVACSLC

As for `CC(C)OC(=O)CCC/C=C\C[C@@H]1[C@@H](CC[C@@H](O)CCc2ccccc2)[C@H](O)C[C@@H]1O` [isopropyl (5Z,9alpha,11alpha,15R)-9,11,15-trihydroxy-17-phenyl-18,19,20-trinorprost-5-en-1-oate], the Ki in experiment [1] was greater than 10 µM; in experiment [2], greater than 10 µM; in experiment [3] it was greater than 10 µM; in experiment [4], greater than 10 µM; in experiment [5], 1.75 µM; in experiment [6], 6.5 µM. Moreover, the results for the Ki in experiment [7] and in experiment [8] were 0.0028 µM and greater than 10 µM, respectively.
Consider `CS(=O)(=O)NC(=O)CCCC=CCC1C(=O)CC(O)C1C=CC(O)COc1ccccc1` (stereo unspecified) [CAS_60325-46-4], for which the Ki is greater than 10 µM in experiment [1]; greater than 10 µM in experiment [2]; greater than 10 µM in experiment [3]; 7.74 µM in experiment [4]; 0.107 µM in experiment [5]; 0.00035 µM in experiment [6]. Besides, the results for the Ki in experiment [7] and in experiment [8] were 0.198 µM and greater than 10 µM, respectively.
For the molecule `O=C(O)CCCCCCc1c(O)[nH]c(=O)n1CCC(O)C1CCCCC1` (stereo unspecified) [NSC_3080928], the Ki in experiment [1] was 0.0004 µM; in experiment [2] it was greater than 10 µM; in experiment [3], 0.219 µM; in experiment [4] it was 0.132 µM; in experiment [5], greater than 10 µM; in experiment [6] it was greater than 10 µM. Moreover, the inhibition constant (Ki) in experiment [7] and in experiment [8] was greater than 10 µM in each case.
`O=C(CCc1ccncc1)NNC(=O)N1Cc2ccccc2Oc2ccc(Cl)cc21` [CAS_146033-02-5]: the Ki was greater than 10 µM in experiment [1]; greater than 10 µM in experiment [2]; greater than 10 µM in experiment [3]; greater than 10 µM in experiment [4]; 1.33 µM in experiment [5]; greater than 10 µM in experiment [6]. Further, the inhibition constant Ki in experiment [7] and in experiment [8] was greater than 10 µM in each case.
For `CCCC1([C@@H](O)C/C=C/C2[C@H](O)CC(=O)[C@@H]2CCCCCCC(=O)OC)CCC1` (stereo partly specified) [Butaprost (Methyl Ester)], the Ki in experiment [1] was greater than 10 µM; in experiment [2], greater than 10 µM; in experiment [3] it was 3.51 µM; in experiment [4], greater than 10 µM; in experiment [5] it was greater than 10 µM; in experiment [6], greater than 10 µM. In addition, the inhibition constant (Ki) in experiment [7] and in experiment [8] was greater than 10 µM each time.
Turning to `CCCCC(C)(O)C/C=C/[C@H]1[C@H](O)CC(=O)[C@@H]1CCCCCCC(=O)OC` (stereo partly specified) [CAS_59122-46-2], the inhibition constant (Ki) was greater than 10 µM in experiment [1]; greater than 10 µM in experiment [2]; 0.034 µM in experiment [3]; 0.023 µM in experiment [4]; greater than 10 µM in experiment [5]; 0.0079 µM in experiment [6]. Also, the Ki was 9.38 µM in experiment [7] and greater than 10 µM in experiment [8].
In the case of `O=C(O)CCC/C=C\C[C@H]1[C@@H]2CCC(O2)[C@H]1CNNC(=O)Nc1ccccc1` [SQ 29548], the Ki in experiment [1], in experiment [2], in experiment [3], in experiment [4], in experiment [5] and in experiment [6] was greater than 10 µM throughout. Further, the inhibition constant Ki in experiment [7] is greater than 10 µM; in experiment [8] it was 0.0041 µM.
